Data taken from patent publication US9670227B2, “Thienopyrimidine derivatives, a process for their preparation and pharmaceutical compositions containing them” (LES LABORATOIRES SERVIER, priority 2013, dated 2017).
Where two headings read alike, the source gives them in different places.

Key:
[1] = molecular target: Mcl-1 protein (UniProtKB primary accession number: Q07820) (Homo sapiens, UniProt Q07820); experiment: Inhibition of Mcl-1 by fluorescence polarisation, Method 1; type: binding; conditions: fluorescence polarisation test; Method 2 values are underlined in the patent (underlining not visible here); read-out: IC50 (M) Mcl-1 FP
Mcl-1 protein, sequence (Q07820 whole entry): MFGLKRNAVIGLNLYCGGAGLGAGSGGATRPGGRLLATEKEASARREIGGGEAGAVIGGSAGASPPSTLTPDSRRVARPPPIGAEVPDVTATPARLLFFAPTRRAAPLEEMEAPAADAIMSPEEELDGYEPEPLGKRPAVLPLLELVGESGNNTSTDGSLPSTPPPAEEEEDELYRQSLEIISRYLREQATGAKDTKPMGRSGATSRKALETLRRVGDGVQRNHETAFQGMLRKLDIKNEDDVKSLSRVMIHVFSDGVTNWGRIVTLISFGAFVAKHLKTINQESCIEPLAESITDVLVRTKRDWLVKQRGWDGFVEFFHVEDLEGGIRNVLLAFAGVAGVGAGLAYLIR
In short: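 Compounds were tested as 11-point serial dilutions at 5% final DMSO against 5 nM Mcl-1 with 1 nM fluorescein-labelled ligand in 10 mM HEPES, 150 mM NaCl, 0.05% Tween 20, pH 7.4. Relative binding potency was read by fluorescence polarisation.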

[2] = test system: H929 multiple myeloma tumour line; experiment: In vitro cytotoxicity, Microculture Tetrazolium Assay; type: cell-based; conditions: H929 cells, 48 hours exposure, MTT, read-out: IC50 (μM) MTT H929
Description: The cytotoxicity studies were carried out on the H929 multiple myeloma tumour line.
The cells are distributed onto microplates and exposed to the test compounds for 48 hours.

| IC50 [1] [M] | SMILES | IC50 ([2]; Homo sapiens, NCI-H929, 48 h) [µM] | IC50 [2] [µM] |
| --- | --- | --- | --- |
| 1.7e-08 | Cc1c(-c2c(-c3ccco3)sc3ncnc(OC(Cc4ccccc4OCc4ncccc4Cl)C(=O)O)c23)ccc(OCCN2CCN(C)CC2)c1Cl [Example 285, (2R)-2-{[(5Sa)-5-{3-chloro-2-methyl-4-[2-(4-methylpiperazin-1-yl)ethoxy]phenyl}-6-(furan-2-yl)thieno[2,3-d]pyrimidin-4-yl]oxy}-3-{2-[(3-chloropyridin-2-yl)methoxy]phenyl}propanoic acid] | 0.588 |  |
| 7.6e-09 | Cc1c(-c2c(-c3ccco3)sc3ncnc(OC(Cc4ccccc4OCc4ncccn4)C(=O)O)c23)ccc(OCCN2CCN(C)CC2)c1Cl [Example 286, (2R)-2-{[(5Sa)-5-{3-chloro-2-methyl-4-[2-(4-methylpiperazin-1-yl)ethoxy]phenyl}-6-(furan-2-yl)thieno[2,3-d]pyrimidin-4-yl]oxy}-3-[2-(pyrimidin-2-ylmethoxy)phenyl]propanoic acid] | 0.508 |  |
| 8.3e-09 | Cc1c(-c2c(-c3ccco3)sc3ncnc(OC(Cc4ccccc4OCc4nccn4C)C(=O)O)c23)ccc(OCCN2CCN(C)CC2)c1Cl [Example 287, (2R)-2-{[(5Sa)-5-{3-chloro-2-methyl-4-[2-(4-methylpiperazin-1-yl)ethoxy]phenyl}-6-(furan-2-yl)thieno[2,3-d]pyrimidin-4-yl]oxy}-3-{2-[(1-methyl-1H-imidazol-2-yl)methoxy]phenyl}propanoic acid] | 0.667 |  |
| 1.2e-08 | Cc1c(-c2c(-c3ccco3)sc3ncnc(OC(Cc4ccccc4OCCC(F)(F)F)C(=O)O)c23)ccc(OCCN2CCN(C)CC2)c1Cl [Example 288, (2R)-2-{[(5Sa)-5-{3-chloro-2-methyl-4-[2-(4-methylpiperazin-1-yl)ethoxy]phenyl}-6-(furan-2-yl)thieno[2,3-d]pyrimidin-4-yl]oxy}-3-[2-(3,3,3-trifluoropropoxy)phenyl]propanoic acid] | 0.086 |  |
| 1.4e-08 | Cc1c(-c2c(-c3ccco3)sc3ncnc(OC(Cc4ccccc4OCCc4ccccn4)C(=O)O)c23)ccc(OCCN2CCN(C)CC2)c1Cl [Example 289, (2R)-2-{[(5Sa)-5-{3-chloro-2-methyl-4-[2-(4-methylpiperazin-1-yl)ethoxy]phenyl}-6-(furan-2-yl)thieno[2,3-d]pyrimidin-4-yl]oxy}-3-{2-[2-(pyridin-2-yl)ethoxy]phenyl}propanoic acid] | 0.18 |  |
| 3.8e-08 | Cc1c(-c2c(-c3ccco3)sc3ncnc(OC(Cc4ccccc4OCCOc4ccccc4)C(=O)O)c23)ccc(OCCN2CCN(C)CC2)c1Cl [Example 291, (2R)-2-{[(5Sa)-5-{3-chloro-2-methyl-4-[2-(4-methylpiperazin-1-yl)ethoxy]phenyl}-6-(furan-2-yl)thieno[2,3-d]pyrimidin-4-yl]oxy}-3-[2-(2-phenoxyethoxy)phenyl]propanoic acid] | 1.3 |  |
| 9.3e-09 | Cc1c(-c2c(-c3ccco3)sc3ncnc(OC(Cc4ccccc4OCCOCc4ccccc4)C(=O)O)c23)ccc(OCCN2CCN(C)CC2)c1Cl [Example 292, (2R)-3-{2-[2-(benzyloxy)ethoxy]phenyl}-2-{[(5Sa)-5-{3-chloro-2-methyl-4-[2-(4-methylpiperazin-1-yl)ethoxy]phenyl}-6-(furan-2-yl)thieno[2,3-d]pyrimidin-4-yl]oxy}propanoic acid] | 0.192 |  |
| 1.6e-08 | Cc1c(-c2c(-c3ccco3)sc3ncnc(OC(Cc4ccccc4OCc4cn(Cc5ccccc5)nn4)C(=O)O)c23)ccc(OCCN2CCN(C)CC2)c1Cl [Example 294, (2R)-3-{2-[(1-benzyl-1H-1,2,3-triazol-4-yl)methoxy]phenyl}-2-{[(5Sa)-5-{3-chloro-2-methyl-4-[2-(4-methylpiperazin-1-yl)ethoxy]phenyl}-6-(furan-2-yl)thieno[2,3-d]pyrimidin-4-yl]oxy}propanoic acid] | 0.886 |  |
| 4.7e-09 | Cc1c(-c2c(-c3ccco3)sc3ncnc(OC(Cc4ccccc4OCc4cnnn4Cc4ccccc4)C(=O)O)c23)ccc(OCCN2CCN(C)CC2)c1Cl [Example 295, (2R)-3-{2-[(1-benzyl-1H-1,2,3-triazol-5-yl)methoxy]phenyl}-2-{[(5Sa)-5-{3-chloro-2-methyl-4-[2-(4-methylpiperazin-1-yl)ethoxy]phenyl}-6-(furan-2-yl)thieno[2,3-d]pyrimidin-4-yl]oxy}propanoic acid] | 0.021 |  |
| 1.2e-08 | COc1ccccc1CC(Oc1ncnc2sc(-c3ccco3)c(-c3ccc(OCC4CCCN4C)c(Cl)c3C)c12)C(=O)O [Example 298, (2R)-2-{[(5Sa)-5-(3-chloro-2-methyl-4-{[(2S)-1-methylpyrrolidin-2-yl]methoxy}phenyl)-6-(furan-2-yl)thieno[2,3-d]pyrimidin-4-yl]oxy}-3-(2-methoxyphenyl)propanoic acid] | 1.14 |  |
| 1.6e-08 | COc1ccccc1CC(Oc1ncnc2sc(-c3ccco3)c(-c3ccc(OCC4CCCN4C)c(Cl)c3C)c12)C(=O)O [Example 299, (2R)-2-{[(5Sa)-5-(3-chloro-2-methyl-4-{[(2R)-1-methylpyrrolidin-2-yl]methoxy}phenyl)-6-(furan-2-yl)thieno[2,3-d]pyrimidin-4-yl]oxy}-3-(2-methoxyphenyl)propanoic acid] |  | 1.03 |
| 9.3e-09 | COc1ccccc1CC(Oc1ncnc2sc(-c3ccco3)c(-c3ccc(OC4CCN(C)C4)c(Cl)c3C)c12)C(=O)O [Example 303, (2R)-2-{[(5Sa)-5-{3-chloro-2-methyl-4-[(1-methylpyrrolidin-3-yl)oxy]phenyl}-6-(furan-2-yl)thieno[2,3-d]pyrimidin-4-yl]oxy}-3-(2-methoxyphenyl)propanoic acid] | 0.998 |  |
| 1.1e-08 | COc1ccccc1CC(Oc1ncnc2sc(-c3ccco3)c(-c3ccc(OC4CCN(C)CC4)c(Cl)c3C)c12)C(=O)O [Example 304, (2R)-2-{[(5Sa)-5-{3-chloro-2-methyl-4-[(1-methylpiperidin-4-yl)oxy]phenyl}-6-(furan-2-yl)thieno[2,3-d]pyrimidin-4-yl]oxy}-3-(2-methoxyphenyl)propanoic acid] | 1.7 |  |
| 1.4e-08 | COc1ccccc1CC(Oc1ncnc2sc(-c3ccco3)c(-c3ccc(OCC4CCN(C)C4)c(Cl)c3C)c12)C(=O)O [Example 310, (2R)-2-{[(5Sa)-5-{3-chloro-2-methyl-4-[(1-methylpyrrolidin-3-yl)methoxy]phenyl}-6-(furan-2-yl)thieno[2,3-d]pyrimidin-4-yl]oxy}-3-(2-methoxyphenyl)propanoic acid] | 0.26 |  |
| 1.5e-08 | COc1ccccc1CC(Oc1ncnc2sc(-c3ccco3)c(-c3ccc(OCC4CCN(C)CC4)c(Cl)c3C)c12)C(=O)O [Example 311, (2R)-2-{[(5Sa)-5-{3-chloro-2-methyl-4-[(1-methylpiperidin-4-yl)methoxy]phenyl}-6-(furan-2-yl)thieno[2,3-d]pyrimidin-4-yl]oxy}-3-(2-methoxyphenyl)propanoic acid] | 1.59 |  |
| 8.9e-09 | COCCN1CCC(COc2ccc(-c3c(-c4ccco4)sc4ncnc(OC(Cc5ccccc5OC)C(=O)O)c34)c(C)c2Cl)C1 [Example 312, (2R)-2-{[(5Sa)-5-(3-chloro-4-{[1-(2-methoxyethyl)pyrrolidin-3-yl]methoxy}-2-methylphenyl)-6-(furan-2-yl)thieno[2,3-d]pyrimidin-4-yl]oxy}-3-(2-methoxyphenyl)propanoic acid] | 1 |  |
| 1e-08 | COc1ccccc1CC(Oc1ncnc2sc(-c3ccco3)c(-c3ccc(OCC4CN(C)CCN4C)c(Cl)c3C)c12)C(=O)O [Example 313, (2R)-2-{[(5Sa)-5-{3-chloro-4-[(1,4-dimethylpiperazin-2-yl)methoxy]-2-methylphenyl}-6-(furan-2-yl)thieno[2,3-d]pyrimidin-4-yl]oxy}-3-(2-methoxyphenyl)propanoic acid] | 0.886 |  |
| 6.9e-09 | COc1ccccc1CC(Oc1ncnc2sc(-c3ccco3)c(-c3ccc(OCC4CN(C)CCO4)c(Cl)c3C)c12)C(=O)O [Example 314, (2R)-2-{[(5Sa)-5-{3-chloro-2-methyl-4-[(4-methylmorpholin-2-yl)methoxy]phenyl}-6-(furan-2-yl)thieno[2,3-d]pyrimidin-4-yl]oxy}-3-(2-methoxyphenyl)propanoic acid] | 1.82 |  |
| 7.7e-09 | COc1ccccc1CC(Oc1ncnc2sc(-c3ccco3)c(-c3ccc(OCCC4CCCN4C)c(Cl)c3C)c12)C(=O)O [Example 316, (2R)-2-{[(5Sa)-5-{3-chloro-2-methyl-4-[2-(1-methylpyrrolidin-2-yl)ethoxy]phenyl}-6-(furan-2-yl)thieno[2,3-d]pyrimidin-4-yl]oxy}-3-(2-methoxyphenyl)propanoic acid] | 1.46 |  |
| 1.8e-08 | COc1ccccc1CC(Oc1ncnc2sc(-c3ccco3)c(-c3ccc(OCCC4CCN(C)CC4)c(Cl)c3C)c12)C(=O)O [Example 317, (2R)-2-{[(5Sa)-5-{3-chloro-2-methyl-4-[2-(1-methylpiperidin-4-yl)ethoxy]phenyl}-6-(furan-2-yl)thieno[2,3-d]pyrimidin-4-yl]oxy}-3-(2-methoxyphenyl)propanoic acid] | 0.852 |  |
| 1.5e-08 | COc1ccccc1CC(Oc1ncnc2sc(-c3ccco3)c(-c3ccc(OCCN)c(Cl)c3C)c12)C(=O)O [Example 319, (2R)-2-({(5Sa)-5-[4-(2-aminoethoxy)-3-chloro-2-methylphenyl]-6-(furan-2-yl)thieno[2,3-d]pyrimidin-4-yl}oxy)-3-(2-methoxyphenyl)propanoic acid] | 0.834 |  |
